One assay relates to JeKo-1 cells. Nature of the assay: Antiproliferative effect, MTS cell viability assay, JeKo-1 cells. The format is cell-based. Conditions: JeKo-1 mantle cell lymphoma cells, read-out: IC50 (anti-proliferation) JeKO-1 cells. An outline of the steps: (§1)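 Mino and JeKo-1 mantle B-cell lymphoma lines were exposed to compound at 0, 0.001, 0.01, 0.1, 1 and 10 μM for 72 h. Viability was read by MTS reduction to formazan, measured as absorbance at 490 nm.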

For a further assay, the system named is Mino cells. Nature of the assay: Antiproliferative effect, MTS cell viability assay, Mino cells. It counts as cell-based. Conditions: Mino mantle cell lymphoma cells, read-out: IC50 (anti-proliferation) Mino cells. An outline of the steps:
as §1

In the next assay the target is BTK (Homo sapiens, UniProt Q06187). Nature of the assay: Degradation of BTK protein in Namalwa cells (Western blot; DC50, Dmax).
Chain of BTK (Q06187 whole entry): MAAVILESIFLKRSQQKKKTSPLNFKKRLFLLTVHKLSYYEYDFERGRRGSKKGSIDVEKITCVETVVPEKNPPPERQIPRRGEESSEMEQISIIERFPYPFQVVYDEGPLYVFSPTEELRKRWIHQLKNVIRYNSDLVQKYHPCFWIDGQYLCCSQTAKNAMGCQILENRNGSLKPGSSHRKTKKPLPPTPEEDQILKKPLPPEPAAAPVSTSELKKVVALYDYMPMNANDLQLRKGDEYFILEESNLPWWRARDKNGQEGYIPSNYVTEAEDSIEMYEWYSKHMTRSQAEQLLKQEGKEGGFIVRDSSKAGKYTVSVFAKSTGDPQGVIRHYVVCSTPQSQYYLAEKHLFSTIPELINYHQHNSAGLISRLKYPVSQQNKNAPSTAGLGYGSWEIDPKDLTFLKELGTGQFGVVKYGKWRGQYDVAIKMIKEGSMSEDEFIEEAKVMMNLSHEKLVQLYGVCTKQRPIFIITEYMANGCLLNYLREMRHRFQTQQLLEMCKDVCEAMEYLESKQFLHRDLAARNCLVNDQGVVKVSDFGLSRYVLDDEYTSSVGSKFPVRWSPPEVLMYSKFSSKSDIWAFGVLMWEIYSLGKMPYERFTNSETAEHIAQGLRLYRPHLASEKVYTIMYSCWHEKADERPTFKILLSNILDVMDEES
Setting [1] is: read-out: DC50 (BTK degradation), concentration giving 50% reduction of BTK expression level, cell line not given.
Where [2] appears, read: read-out: Dmax (BTK degradation).
Where [3] appears, read: BTK degradation, cell line not given.

Where two headings read alike, the source gives them in different places.

For the compound `Nc1ncnc2c1c(-c1ccc(Oc3ccccc3)cc1)nn2C1CCN(CCCN2CCC(CN3CCC(c4ccc(N5CCC(=O)NC5=O)cc4)CC3)CC2)CC1` [Compound 555, 1-(4-(1-((1-(3-(4-(4-amino-3-(4-phenoxyphenyl)-1H-pyrazolo[3,4-d]pyrimidin-1-yl)piperidin-1-yl)propyl)piperidin-4-yl)methyl)piperidin-4-yl)phenyl)dihydropyrimidine-2,4(1H,3H)-dione], the IC50 in the assay on JeKo-1 cells (Homo sapiens) is below 1 µM; in the assay with Mino cells (Homo sapiens, MINO), below 1 µM. In addition, the DC50 on BTK (setting [1]) is 0.01 to 0.05 µM. The Dmax at BTK (setting [2]) is above 90%.
Turning to `NC(=O)c1c(-c2ccc(Oc3ccccc3)cc2)nn2c1NCC[C@H]2C1CCN(CC2CCN(CCN3CCC(c4ccc5c(c4)C(=O)N(C4CCC(=O)NC4=O)C5=O)CC3)CC2)CC1` (stereo partly drawn) [Compound 335, (7S)-7-(1-((1-(2-(4-(2-(2,6-dioxopiperidin-3-yl)-1,3-dioxoisoindolin-5-yl)piperidin-1-yl)ethyl)piperidin-4-yl)methyl)piperidin-4-yl)-2-(4-phenoxyphenyl)-4,5,6,7-tetrahydropyrazolo[1,5-a]pyrimidine-3-carboxamide], the IC50 lay within 1 to 10 µM in the assay with JeKo-1 cells (Homo sapiens) and 1 to 10 µM in the assay with Mino cells (Homo sapiens, MINO). At BTK, this compound had a Dmax above 75%. Besides, the DC50 at BTK (setting [3]) was above 0.05 µM.
On to `NC(=O)c1c(-c2ccc(Oc3ccccc3)cc2)nn2c1NCCC2C1CCN(C2CCN(C(=O)N3CCN(c4ccc5c(c4)CN(C4CCC(=O)NC4=O)C5=O)CC3)CC2)CC1` (stereo not drawn) [Compound 338, 7-(1′-(4-(2-(2,6-dioxopiperidin-3-yl)-1-oxoisoindolin-5-yl)piperazine-1-carbonyl)-[1,4′-bipiperidin]-4-yl)-2-(4-phenoxyphenyl)-4,5,6,7-tetrahydropyrazolo[1,5-a]pyrimidine-3-carboxamide], for which the IC50 with JeKo-1 cells (Homo sapiens) is above 10 µM; with Mino cells (Homo sapiens, MINO) it was 1 to 10 µM. On BTK, this compound yielded a Dmax above 50%. In addition, at BTK (setting [3]), the DC50 is above 0.05 µM.
Take `Nc1ncnc2c1c(-c1ccc(Oc3ccccc3)cc1)nn2C1CCN([C@@H]2CCN(CC3CN(c4ccc5c(c4)C(=O)N(C4CCC(=O)NC4=O)C5=O)C3)C2)CC1` (stereo partly drawn) [Compound 425a, 5-(3-(((R)-3-(4-(4-amino-3-(4-phenoxyphenyl)-1H-pyrazolo[3,4-d]pyrimidin-1-yl)piperidin-1-yl)pyrrolidin-1-yl)methyl)azetidin-1-yl)-2-(2,6-dioxopiperidin-3-yl)isoindoline-1,3-dione]: the IC50 lay in the range of 1 to 10 µM in the assay on JeKo-1 cells (Homo sapiens) and 1 to 10 µM in the assay on Mino cells (Homo sapiens, MINO). Moreover, the DC50 on BTK (setting [1]) lay within 0.01 to 0.05 µM. In addition, at BTK (setting [2]), the Dmax is above 90%.
Take `Nc1ncnc2c1c(-c1ccc(Oc3ccccc3)cc1)nn2[C@@H]1CCCN(CC2CCN(c3ccc(N4CCC(=O)NC4=O)cc3)CC2)C1` [Compound 529, (R)-1-(4-(4-((3-(4-amino-3-(4-phenoxyphenyl)-1H-pyrazolo[3,4-d]pyrimidin-1-yl)piperidin-1-yl)methyl)piperidin-1-yl)phenyl)dihydropyrimidine-2,4(1H,3H)-dione]: the IC50 in the assay with JeKo-1 cells (Homo sapiens) was above 10 µM; in the assay on Mino cells (Homo sapiens, MINO), above 10 µM. In addition, at BTK (setting [1]), the DC50 was 0.01 to 0.05 µM. Besides, the Dmax at BTK (setting [2]) is above 50%.
As for `Nc1ncnc2c1c(-c1ccc(Oc3ccccc3)cc1)nn2C1CCN(C2CCN(C(=O)N3CCC(CCCN4CCC(c5ccc6c(c5)CN(C5CCC(=O)NC5=O)C6=O)CC4)CC3)CC2)CC1` (stereo not drawn) [Compound 268, 3-(5-(1-(3-(1-(4-(4-amino-3-(4-phenoxyphenyl)-1H-pyrazolo[3,4-d]pyrimidin-1-yl)-[1,4′-bipiperidine]-1′-carbonyl)piperidin-4-yl)propyl)piperidin-4-yl)-1-oxoisoindolin-2-yl)piperidine-2,6-dione], the IC50 with JeKo-1 cells (Homo sapiens) was 1 to 10 µM; with Mino cells (Homo sapiens, MINO), below 1 µM. This compound yielded a Dmax on BTK above 90%. The DC50 at BTK (setting [3]) is 0.01 to 0.05 µM.
As for `NC(=O)c1c(-c2ccc(Oc3ccccc3)cc2)nn2c1NCCC2C1CCN(C(=O)N2CCC(CC3CCN(c4ccc5c(c4)C(=O)N(C4CCC(=O)NC4=O)C5=O)CC3)CC2)CC1` (stereo not drawn) [Compound 277, 7-(1-(4-((1-(2-(2,6-dioxopiperidin-3-yl)-1,3-dioxoisoindolin-5-yl)piperidin-4-yl)methyl)piperidine-1-carbonyl)piperidin-4-yl)-2-(4-phenoxyphenyl)-4,5,6,7-tetrahydropyrazolo[1,5-a]pyrimidine-3-carboxamide], the IC50 is 1 to 10 µM in the assay on JeKo-1 cells (Homo sapiens) and below 1 µM in the assay with Mino cells (Homo sapiens, MINO). This compound had a Dmax at BTK above 90%. Besides, the DC50 on BTK (setting [3]) is below 0.01 µM.
Take “(7S)-7-(1-((1-(4-(2-(2,6- dioxopiperidin-3-yl)-1,3- dioxoisoindolin-5-yl)piperazine-1- carbonyl)piperidin-1- yl)methyl)piperidin-4-yl)-2-(4- phenoxyphenyl)-4,5,6,7- tetrahydropyrazolo[1,5-a]pyrimidine- 3-carboxamide [Compound 397]”: the results for the IC50 with JeKo-1 cells and in the assay with Mino cells were 1 to 10 µM and above 10 µM, respectively. On BTK (cell line not given), the “Dmax (BTK degradation)” value is “B (B >75%)”. The DC50 at BTK (setting [1]) was above 0.05 µM.
Turning to `NC(=O)c1c(-c2ccc(Oc3ccccc3)cc2)nn2c1NCCC2C1CCN(C2CCN(C(=O)N3CCN(C4CCN(c5ccc6c(c5)CN(C5CCC(=O)NC5=O)C6=O)CC4)CC3)CC2)CC1` (stereo not drawn) [Compound 346, 7-(1′-(4-(1-(2-(2,6-dioxopiperidin-3-yl)-1-oxoisoindolin-5-yl)piperidin-4-yl)piperazine-1-carbonyl)-[1,4′-bipiperidin]-4-yl)-2-(4-phenoxyphenyl)-4,5,6,7-tetrahydropyrazolo[1,5-a]pyrimidine-3-carboxamide], the IC50 was 1 to 10 µM in the assay with JeKo-1 cells (Homo sapiens) and below 1 µM in the assay on Mino cells (Homo sapiens, MINO). Moreover, on BTK, the Dmax is above 90%. In addition, at BTK (setting [3]), the DC50 was below 0.01 µM.
Turning to `Nc1ncnc2c1c(-c1ccc(Oc3ccccc3)cc1)nn2C1CCN(CC2CCN(CC3CCN(c4ccc5c(c4)CN(C4CCC(=O)NC4=O)C5=O)C3)C2)CC1` (stereo not drawn) [Compound 448, 3-(5-(3-((3-((4-(4-amino-3-(4-phenoxyphenyl)-1H-pyrazolo[3,4-d]pyrimidin-1-yl)piperidin-1-yl)methyl)pyrrolidin-1-yl)methyl)pyrrolidin-1-yl)-1-oxoisoindolin-2-yl)piperidine-2,6-dione], the IC50 in the assay with JeKo-1 cells (Homo sapiens) was 1 to 10 µM; in the assay on Mino cells (Homo sapiens, MINO), 1 to 10 µM. On BTK (setting [1]), the DC50 lay within 0.01 to 0.05 µM. Also, the Dmax at BTK (setting [2]) was above 90%.
`Nc1ncnc2c1c(-c1ccc(Oc3ccccc3)cc1)nn2C1CCN([C@H]2CCN(CC3CCN(c4ccc5c(c4)C(=O)N(C4CCC(=O)NC4=O)C5=O)CC3)C2)CC1` (stereo partly drawn) [Compound 449a, 5-(4-(((S)-3-(4-(4-amino-3-(4-phenoxyphenyl)-1H-pyrazolo[3,4-d]pyrimidin-1-yl)piperidin-1-yl)pyrrolidin-1-yl)methyl)piperidin-1-yl)-2-(2,6-dioxopiperidin-3-yl)isoindoline-1,3-dione]: the IC50 is below 1 µM in the assay with JeKo-1 cells (Homo sapiens) and below 1 µM in the assay on Mino cells (Homo sapiens, MINO). Further, the DC50 at BTK (setting [1]) is below 0.01 µM. In addition, the Dmax at BTK (setting [2]) was above 90%.
As for `Nc1ncnc2c1c(-c1ccc(Oc3ccccc3)cc1)nn2C1CCN(CC2CCN(CCCN3CCN(c4ccc5c(c4)CN(C4CCC(=O)NC4=O)C5=O)CC3)CC2)CC1` (stereo not drawn) [Compound 208, 3-(5-(4-(3-(4-((4-(4-amino-3-(4-phenoxyphenyl)-1H-pyrazolo[3,4-d]pyrimidin-1-yl)piperidin-1-yl)methyl)piperidin-1-yl)propyl)piperazin-1-yl)-1-oxoisoindolin-2-yl)piperidine-2,6-dione], the IC50 in the assay on JeKo-1 cells (Homo sapiens) is above 10 µM; in the assay on Mino cells (Homo sapiens, MINO) it was above 10 µM. For the same compound, the Dmax on BTK was above 75%. Also, the DC50 on BTK (setting [3]) is above 0.05 µM.
Consider `Nc1ncnc2c1c(-c1ccc(Oc3ccccc3)cc1)nn2C1CCN(CC2CCN(CCN3CCC(c4ccc5c(c4)C(=O)N(C4CCC(=O)NC4=O)C5=O)CC3)CC2)CC1` (stereo not drawn) [Compound 205, 5-(1-(2-(4-((4-(4-amino-3-(4-phenoxyphenyl)-1H-pyrazolo[3,4-d]pyrimidin-1-yl)piperidin-1-yl)methyl)piperidin-1-yl)ethyl)piperidin-4-yl)-2-(2,6-dioxopiperidin-3-yl)isoindoline-1,3-dione], for which the IC50 with JeKo-1 cells (Homo sapiens) was 1 to 10 µM; in the assay on Mino cells (Homo sapiens, MINO) it was below 1 µM. The compound further registered a Dmax at BTK above 90%. Moreover, the DC50 at BTK (setting [3]) is 0.01 to 0.05 µM.
With `NC(=O)c1c(-c2ccc(Oc3ccccc3)cc2)nn2c1NCC[C@H]2C1CCN(C2CCN(C(=O)N3CCN(C4CCN(c5ccc6c(c5)C(=O)N(C5CCC(=O)NC5=O)C6=O)CC4)CC3)CC2)CC1` (stereo partly drawn) [Compound 385, (7S)-7-(1′-(4-(1-(2-(2,6-dioxopiperidin-3-yl)-1,3-dioxoisoindolin-5-yl)piperidin-4-yl)piperazine-1-carbonyl)-[1,4′-bipiperidin]-4-yl)-2-(4-phenoxyphenyl)-4,5,6,7-tetrahydropyrazolo[1,5-a]pyrimidine-3-carboxamide], the IC50 was 1 to 10 µM in the assay on JeKo-1 cells (Homo sapiens) and below 1 µM in the assay with Mino cells (Homo sapiens, MINO). At BTK, this compound yielded a Dmax above 90%. The same compound had a DC50 at BTK (setting [3]) below 0.01 µM.
The corresponding values for `NC(=O)c1c(-c2ccc(Oc3ccccc3)cc2)nn2c1NCC[C@H]2C1CCN(C2CCN(CCC3CCN(c4ccc5c(c4)CN(C4CCC(=O)NC4=O)C5=O)CC3)CC2)CC1` (stereo partly drawn) [Compound 326, (7S)-7-(1′-(2-(1-(2-(2,6-dioxopiperidin-3-yl)-1-oxoisoindolin-5-yl)piperidin-4-yl)ethyl)-[1,4′-bipiperidin]-4-yl)-2-(4-phenoxyphenyl)-4,5,6,7-tetrahydropyrazolo[1,5-a]pyrimidine-3-carboxamide] are 1 to 10 µM, 1 to 10 µM, above 90% and 0.01 to 0.05 µM.

For the origin of these results see patent US12139492B2 (Endotarget Inc., priority 2021, dated 2024).
